The text below walks through data of ChEMBL document CHEMBL2424531, “Molecular docking- and genetic algorithm-based approaches to produce robust 3D-QSAR models” (Med Chem Res, 2013).

The test can be described thus: Inhibition of glycogen phosphorylase b (unknown origin). On the set-up: species or system Homo sapiens.
`O=C(Nc1ccc(O)cc1)[C@@H]1O[C@H](CO)[C@@H](O)[C@H](O)[C@H]1O` gave a Ki of 4400 µM.
`CCCC(=O)NC1O[C@H](CO)[C@@H](O)[C@H](O)[C@H]1O` (single isomer, unassigned) gave a Ki of 94 µM.
In the case of `O=C(Nc1ccccc1)[C@@H]1O[C@H](CO)[C@@H](O)[C@H](O)[C@H]1O` it was 5400 µM.
With `COC(=O)[C@@H]1O[C@H](CO)[C@@H](O)[C@H](O)[C@H]1O`, the affinity, expressed as Ki, was 2800 µM.
`C[C@H]1O[C@H](CO)[C@@H](O)[C@H](O)[C@H]1O` yielded a Ki of 53100 µM.
The figure for `[N-]=[N+]=NC[C@]1(O)O[C@H](CO)[C@@H](O)[C@H](O)[C@H]1O` is 7400 µM.
In the case of `OC[C@H]1O[C@H](CO)[C@@H](O)[C@H](O)[C@H]1O` it was 1500 µM; in that of `NC[C@@H]1O[C@H](CO)[C@@H](O)[C@H](O)[C@H]1O`, 16800 µM.
In the case of `CNC(=O)[C@@H]1O[C@H](CO)[C@@H](O)[C@H](O)[C@H]1O` it was 160 µM; in that of `[N-]=[N+]=NC[C@H]1O[C@H](CO)[C@@H](O)[C@H](O)[C@H]1O`, 22400 µM; in that of `CC(=O)NC1O[C@H](CO)[C@@H](O)[C@H](O)[C@H]1O` (single isomer, unassigned), 32 µM.
On to `COC(=O)[C@H]1O[C@H](CO)[C@@H](O)[C@H](O)[C@H]1O`, for which the Ki came to 24200 µM.
`NC(=O)[C@@H]1O[C@H](CO)[C@@H](O)[C@H](O)[C@H]1O` came in with an inhibition constant (Ki) of 440 µM.
The compound `O=C(NCC(F)(F)F)[C@@H]1O[C@H](CO)[C@@H](O)[C@H](O)[C@H]1O` showed an inhibitory constant (Ki) of 8100 µM.
Regarding `O=C(NC1O[C@H](CO)[C@@H](O)[C@H](O)[C@H]1O)c1ccccc1` (single isomer, unassigned), the Ki came to 81 µM.
`OC[C@H]1O[C@@H](S)[C@H](O)[C@@H](O)[C@@H]1O` showed a Ki of 1000 µM.
In the case of `CC(=O)NCC(=O)NC1O[C@H](CO)[C@@H](O)[C@H](O)[C@H]1O` (single isomer, unassigned) it was 990 µM.
In turn, `O=C(NCCO)[C@H]1O[C@H](CO)[C@@H](O)[C@H](O)[C@H]1O` came in with a Ki of 16900 µM.
Compound `O=C(O)[C@H]1O[C@H](CO)[C@@H](O)[C@H](O)[C@H]1O` returned a Ki of 15200 µM.
The compound `COC(=O)N[C@@H]1O[C@H](CO)[C@@H](O)[C@H](O)[C@H]1O` displayed a Ki of 85 µM.
As for `O=C1CNC(=O)C2(N1)O[C@H](CO)[C@@H](O)[C@H](O)[C@H]2O` (stereo partly specified), the Ki was found to be 59.7 µM.
Compound `CO[C@@H]1O[C@H](CO)[C@@H](O)[C@H](O)[C@H]1O` returned a Ki of 24700 µM.
For the compound `O=C(NCc1ccc(F)cc1F)[C@H]1O[C@H](CO)[C@@H](O)[C@H](O)[C@H]1O`, the Ki amounted to 27200 µM.
For the compound `NNC(=O)[C@@H]1O[C@H](CO)[C@@H](O)[C@H](O)[C@H]1O`, the affinity, expressed as Ki, was 400 µM.
Consider `N#CC[C@@H]1O[C@H](CO)[C@@H](O)[C@H](O)[C@H]1O`, for which affinity was put at a Ki of 9000 µM.
The figure for `OC[C@H]1S[C@H](O)[C@H](O)[C@@H](O)[C@@H]1O` is 2000 µM; for `N#CC[C@]1(O)O[C@H](CO)[C@@H](O)[C@H](O)[C@H]1O` it is 7600 µM; for `O=C(CBr)N[C@@H]1O[C@H](CO)[C@@H](O)[C@H](O)[C@H]1O` it is 44 µM.
In the case of `NC(=O)CSC1O[C@H](CO)[C@@H](O)[C@H](O)[C@H]1O` (single isomer, unassigned), the Ki is 21100 µM.
The figure for `OC[C@H]1O[C@@H](Oc2cc3ccccc3[nH]2)[C@H](O)[C@@H](O)[C@@H]1O` is 2600 µM; for `NCC(=O)N[C@@H]1O[C@H](CO)[C@@H](O)[C@H](O)[C@H]1O` it is 370 µM; for `O=C(Nc1ccc(O)cc1)[C@H]1O[C@H](CO)[C@@H](O)[C@H](O)[C@H]1O` it is 5600 µM.
`OC[C@H]1O[C@@](O)(CO)[C@H](O)[C@@H](O)[C@@H]1O` gave a Ki of 15800 µM.
Compound `CNNC(=O)C1O[C@H](CO)[C@@H](O)[C@H](O)[C@H]1O` (single isomer, unassigned) gave a Ki of 1800 µM.
In the case of `O=C(CCl)NC1O[C@H](CO)[C@@H](O)[C@H](O)[C@H]1O` (single isomer, unassigned) it was 45 µM; in that of `O=C(NCCO)[C@@H]1O[C@H](CO)[C@@H](O)[C@H](O)[C@H]1O`, 2600 µM.
In turn, `CCC(=O)NC1O[C@H](CO)[C@@H](O)[C@H](O)[C@H]1O` (single isomer, unassigned) gave an inhibition constant Ki of 39 µM.
The figure for `O=C(CSC1O[C@H](CO)[C@@H](O)[C@H](O)[C@H]1O)Nc1ccccc1` (single isomer, unassigned) is 3600 µM.
The compound `NCC[C@@H]1O[C@H](CO)[C@@H](O)[C@H](O)[C@H]1O` registered a Ki of 4500 µM.
For `CNC(=O)[C@H]1O[C@H](CO)[C@@H](O)[C@H](O)[C@H]1O`, the affinity, expressed as Ki, was 36700 µM.
In the case of `NC[C@H]1O[C@H](CO)[C@@H](O)[C@H](O)[C@H]1O` it was 34500 µM.
Regarding `CS(=O)(=O)OC[C@]1(O)O[C@H](CO)[C@@H](O)[C@H](O)[C@H]1O`, the Ki stood at 3700 µM.
`O=C(CSC1O[C@H](CO)[C@@H](O)[C@H](O)[C@H]1O)Nc1ccc(F)cc1F` (single isomer, unassigned) came in with a Ki of 18900 µM.
In the case of `O=C(Nc1ccccc1)[C@H]1O[C@H](CO)[C@@H](O)[C@H](O)[C@H]1O` it was 12600 µM; in that of `CS(=O)(=O)OC[C@@H]1O[C@H](CO)[C@@H](O)[C@H](O)[C@H]1O`, 4800 µM; in that of `NC(=O)[C@H]1O[C@H](CO)[C@@H](O)[C@H](O)[C@H]1O`, 370 µM.
The figure for `NN1C(=O)NC2(O[C@H](CO)[C@@H](O)[C@H](O)[C@H]2O)C1=O` (stereo partly specified) is 146 µM; for `O=C(NC1CC1)[C@@H]1O[C@H](CO)[C@@H](O)[C@H](O)[C@H]1O` it is 1300 µM; for `NC(=O)NC1O[C@H](CO)[C@@H](O)[C@H](O)[C@H]1O` (single isomer, unassigned) it is 140 µM.
As for `NNC(=O)[C@H]1O[C@H](CO)[C@@H](O)[C@H](O)[C@H]1O`, affinity was put at a Ki of 3000 µM.
In the case of `COC(=O)N[C@]1(C(N)=O)O[C@H](CO)[C@@H](O)[C@H](O)[C@H]1O` it was 16 µM.

What is called Ki is a dissociation constant, usually derived from enzyme kinetics or from competition with a known ligand.
